Results published in PMC5011342, “A high throughput drug screening assay to identify compounds that promote oligodendrocyte differentiation using acutely dissociated and purified oligodendrocyte precursor cells” (BMC Research Notes, 2016).
Where two headings read alike, the source gives them in different places.

What was measured:
[1] = system: acutely dissociated and purified rat OPCs; test: Acute OL differentiation assay (MBP expression/cell, immunofluorescent image quantification); format: cell-based
Summary of the method: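 This acute differentiation assay used purified rat OPCs from postnatal day 6–7 pups, seeded into PDL/laminin-coated 96-well plates in differentiation medium lacking PDGF and FGF. Compounds were applied in quadruplicate after a 1–2 h preincubation at 37 °C, 10 % CO2, with 0.1 % DMSO negative and 40 ng/ml T3 positive controls in eight wells. After fixation on DIV4, anti-MBP immunofluorescence images yielded MBP expression/cell.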

expanded OPCs = test: cells; conditions: for 0.1 µM (% DMSO) / 1 µM (% DMSO) / 10 µM (% DMSO): alamarBlue viability of expanded OPCs, relative to DMSO control; for 0.1 µM (% DMSO): compound at 0.1 µM; for 1 µM (% DMSO): compound at 1 µM; for 10 µM (% DMSO): compound at 10 µM; for viability at 0.1 µM / viability at 1 µM / viability at 10 µM: Rattus norvegicus, 72 h
Summary of the method: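 Toxicity screen: compounds added at 0.1, 1 and 10 µM to PDGF-AA-expanded OPCs in 96-well plates, 3-day incubation at 37 °C, 10% CO2, then alamarBlue 1:10 for 4 h with fluorescence readout. Results set screening doses of 10/2, 2/0.4 or 0.4/0.08 µM.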

[2] = Rattus norvegicus, 2 uM test compound, relative to quetiapine, sheet "All OLga data", read-out: OL differentiation, 2 uM (% Quet)
[3] = Rattus norvegicus, 10 uM test compound, relative to quetiapine, sheet "All OLga data", read-out: OL differentiation, 10 uM (% Quet)
[4] = read-out: 0.1 µM (% DMSO), alamarBlue viability of expanded OPCs, compound at 0.1 µM, sheet All Tox data
[5] = read-out: 1 µM (% DMSO), alamarBlue viability of expanded OPCs, compound at 1 µM, sheet All Tox data
[6] = read-out: 10 µM (% DMSO), alamarBlue viability of expanded OPCs, compound at 10 µM, sheet All Tox data
[7] = Rattus norvegicus, test compound at 0.08 uM, NCC library screen, sheet "All OLga data", relative to quetiapine, read-out: 0.08 uM (% Quet)
[8] = Rattus norvegicus, test compound at 0.4 uM, NCC library screen, sheet "All OLga data", relative to quetiapine, read-out: 0.4 uM (% Quet)
[9] = read-out: 0.1 µM (% DMSO), alamarBlue viability, NCC library compound at 0.1 µM, sheet "All Tox data"
[10] = read-out: 1 µM (% DMSO), alamarBlue viability, NCC library compound at 1 µM, sheet "All Tox data"
[11] = read-out: 10 µM (% DMSO), alamarBlue viability, NCC library compound at 10 µM, sheet "All Tox data"
[12] = Rattus norvegicus, 0.4 uM test compound, relative to quetiapine, sheet "All OLga data", read-out: OL differentiation, 0.4 uM (% Quet)
[13] = Rattus norvegicus, test compound at 2 uM, NCC library screen, sheet "All OLga data", relative to quetiapine, read-out: 2 uM (% Quet)
[14] = Rattus norvegicus, test compound at 10 uM, NCC library screen, sheet "All OLga data", relative to quetiapine, read-out: 10 uM (% Quet)
[15] = Rattus norvegicus, test compound at 2 uM, MBP expression relative to quetiapine, NCC library screen, sheet "All OLga data", read-out: 2 uM (% Quet)
[16] = Rattus norvegicus, test compound at 10 uM, MBP expression relative to quetiapine, NCC library screen, sheet "All OLga data", read-out: 10 uM (% Quet)
[17] = Rattus norvegicus, 0.08 uM test compound, relative to quetiapine, sheet "All OLga data", read-out: OL differentiation, 0.08 uM (% Quet)

SMILES | 0.1 µM (% DMSO) (expanded OPCs) | 1 µM (% DMSO) (expanded OPCs) | 10 µM (% DMSO) (expanded OPCs) | activation at 2 µM [1, 2] [%] | activation at 10 µM [1, 3] [%] | viability at 0.1 µM (expanded OPCs; [4]) [%] | viability at 1 µM (expanded OPCs; [5]) [%] | viability at 10 µM (expanded OPCs; [6]) [%] | also measured
Oc1c(Cl)cc(Cl)c(Cl)c1Cc1c(O)c(Cl)cc(Cl)c1Cl [Hexachlorophene] | 115.4 | 10.8 | 9.0 |  |  |  |  |  | activation at 0.08 µM ([1]; Rattus norvegicus, read-out: 0.08 uM (% Quet)): -122%
CC(=O)NCCCCCCNC(C)=O [Hexamethylene bisacetamide] |  |  |  | 4.1 | 12.8 | 80.5 | 83.1 | 87.3 | 
COC(=O)C[C@](O)(CCCC(C)(C)O)C(=O)O[C@@H]1C(OC)=C[C@]23CCCN2CCc2cc4c(cc2[C@H]13)OCO4 [Homoharringtonine] |  |  |  |  |  |  |  |  | activation at 0.08 µM [1, 7]: -112%; activation at 0.4 µM [1, 8]: -172%; viability at 0.1 µM (expanded OPCs; [9]): 10.7%; viability at 1 µM (expanded OPCs; [10]): 9.9%; viability at 10 µM (expanded OPCs; [11]): 9.6%
C=CCc1ccc(O)c(-c2ccc(O)c(CC=C)c2)c1 [Honokiol] |  |  |  |  |  | 95.4 | 78.2 | 11.4 | activation at 0.4 µM [1, 12]: 9.1%
C/C=C1\[C@H]2C=C(C)C[C@]1(N)c1ccc(=O)[nH]c1C2 [Huperzine A] |  |  |  |  |  |  |  |  | activation at 2 µM [1, 13]: -19.5%; activation at 10 µM [1, 14]: -60.7%; viability at 0.1 µM (expanded OPCs; [9]): 94.2%; viability at 1 µM (expanded OPCs; [10]): 90%; viability at 10 µM (expanded OPCs; [11]): 93.8%
NS(=O)(=O)c1cc2c(cc1Cl)NCNS2(=O)=O [Hydrochlorothiazide] | 96.6 | 97.1 | 90.6 |  |  |  |  |  | activation at 2 µM [1, 15]: -36%; activation at 10 µM [1, 16]: -46%
CCCC(=O)O[C@]1(C(=O)COC(=O)CC)CC[C@H]2[C@@H]3CCC4=CC(=O)CC[C@]4(C)[C@H]3[C@@H](O)C[C@@]21C [Hydrocortisone buteprate] | 112.3 | 102.8 | 90.3 |  |  |  |  |  | activation at 2 µM [1, 13]: 19.4%; activation at 10 µM [1, 14]: 13.5%
NS(=O)(=O)c1cc2c(cc1C(F)(F)F)NCNS2(=O)=O [Hydroflumethiazide] | 104.6 | 96.9 | 87.1 |  |  |  |  |  | activation at 2 µM [1, 13]: -24.5%; activation at 10 µM [1, 14]: -39%
O=C(O)c1cc2ccccc2c(Cc2c(O)c(C(=O)O)cc3ccccc23)c1O.OCCOCCN1CCN(C(c2ccccc2)c2ccc(Cl)cc2)CC1 [Hydroxyzine pamoate salt] | 223.4 | 190.1 | 134.2 |  |  |  |  |  | 2 uM (% Quet) ([1]; test compound at 2 uM, NCC library screen, sheet "All OLga data", relative to quetiapine): 106.0 % Quet; 10 uM (% Quet) ([1]; test compound at 10 uM, NCC library screen, sheet "All OLga data", relative to quetiapine): 16.6 % Quet
O=c1c(O[C@@H]2O[C@H](CO)[C@H](O)[C@H](O)[C@H]2O)c(-c2ccc(O)c(O)c2)oc2cc(O)cc(O)c12 [Hyperoside] |  |  |  |  |  | 90.3 | 29.8 | 14.6 | activation at 0.08 µM [1, 17]: -14.3%; activation at 0.4 µM [1, 12]: -70.9%
CC(C)Cc1ccc(C(C)C(=O)O)cc1 (stereo not shown) [Ibuprofen] | 91.7 | 90.2 | 89.1 |  |  |  |  |  | activation at 2 µM [1, 13]: 12%; activation at 10 µM [1, 14]: -9.8%
COc1ccc(-c2oc3c(CC=C(C)C)c(O[C@@H]4O[C@H](CO)[C@@H](O)[C@H](O)[C@H]4O)cc(O)c3c(=O)c2O[C@@H]2O[C@@H](C)[C@H](O)[C@@H](O)[C@H]2O)cc1 [Icariin] |  |  |  | 6.3 | 9.8 | 86.4 | 88.3 | 88.8 | 
COC1=C(OC)C(=O)C(CCCCCCCCCCO)=C(C)C1=O [Idebenone] |  |  |  |  |  | 99.7 | 80.9 | 11 | activation at 0.4 µM [1, 12]: -11.1%
CC(C(O)c1ccc(O)cc1)N1CCC(Cc2ccccc2)CC1 (stereo not shown) [Ifenprodil, reference compound] |  |  |  | 162 | 154 | 93 | 135 | 103 | EC50 ([1]; Rattus norvegicus, average EC50 for induction of OL differentiation from independent biological replicates, eight concentrations): 400 nM; hit in OL differentiation assay, MRF-TMC ([1]; ● = confirmed hit in this paper's assay): ●
CC1Cc2ccccc2N1NC(=O)c1ccc(Cl)c(S(N)(=O)=O)c1 (stereo not shown) [Indapamide] |  |  |  |  |  |  |  |  | activation at 2 µM [1, 13]: -10%; activation at 10 µM [1, 14]: -12.4%; viability at 0.1 µM (expanded OPCs; [9]): 95.2%; viability at 1 µM (expanded OPCs; [10]): 92.1%; viability at 10 µM (expanded OPCs; [11]): 101%
CNC1CC(c2ccc(Cl)c(Cl)c2)c2ccccc21 (stereo not shown) [Indatraline] |  |  |  |  |  | 75.5 | 41.1 | 11.7 | activation at 0.08 µM [1, 17]: 15.3%; activation at 0.4 µM [1, 12]: 24.5%
CC(C)(C)NC(=O)[C@@H]1CN(Cc2cccnc2)CCN1C[C@@H](O)C[C@@H](Cc1ccccc1)C(=O)N[C@H]1c2ccccc2C[C@H]1O [Indinavir] |  |  |  | 13.4 | -44.2 | 105 | 91.7 | 92.2 | 
O=C1Nc2ccccc2/C1=C1/Nc2ccccc2C1=O [Indirubin] |  |  |  | 108 |  |  |  |  | activation at 0.4 µM [1, 12]: 26%; viability at 0.1 µM (expanded OPCs; [9]): 97.6%; viability at 1 µM (expanded OPCs; [10]): 78.2%; viability at 10 µM (expanded OPCs; [11]): 46.3%
COc1ccc2c(c1)c(CC(=O)O)c(C)n2C(=O)c1ccc(Cl)cc1 [Indomethacin] |  |  |  | -10.2 | 2.6 | 81.3 | 85.4 | 87.1 | 
CC(C)Oc1ccc2c(=O)c(-c3ccccc3)coc2c1 [Ipriflavone] |  |  |  | 22.5 | 32 | 87.3 | 92.1 | 117 | 
CCCCC1=NC2(CCCC2)C(=O)N1Cc1ccc(-c2ccccc2-c2nnn[nH]2)cc1 [Irbesartan] |  |  |  | 0.6 | -16.7 |  |  |  | viability at 0.1 µM (expanded OPCs; [9]): 88.9%; viability at 1 µM (expanded OPCs; [10]): 92.8%; viability at 10 µM (expanded OPCs; [11]): 89.7%
CCc1c2c(nc3ccc(OC(=O)N4CCC(N5CCCCC5)CC4)cc13)-c1cc3c(c(=O)n1C2)COC(=O)[C@]3(O)CC [Irinotecan] |  |  |  |  |  |  |  |  | activation at 0.08 µM [1, 7]: -38.4%; activation at 0.4 µM [1, 8]: -140%; viability at 0.1 µM (expanded OPCs; [9]): 82.8%; viability at 1 µM (expanded OPCs; [10]): 49.7%; viability at 10 µM (expanded OPCs; [11]): 27.9%
Nc1nc(N)nc(-c2cc(Cl)ccc2Cl)n1 [Irsogladine] |  |  |  | 20.6 | 6.1 | 92.2 | 92.7 | 94.8 | 
NNC(=O)c1ccncc1 [Isoniazid] | 98.2 | 98.4 | 66.3 |  |  |  |  |  | activation at 2 µM [1, 13]: -8.7%; activation at 10 µM [1, 14]: 3.1%
CC(C)NCC(O)c1ccc(O)c(O)c1 (stereo not shown) [Isoproterenol] | 95.1 | 94.6 | 67.7 |  |  |  |  |  | activation at 2 µM [1, 13]: -19.5%; activation at 10 µM [1, 14]: -148%
O=c1c(O[C@@H]2O[C@H](CO)[C@@H](O)[C@H](O)[C@H]2O)c(-c2ccc(O)c(O)c2)oc2cc(O)cc(O)c12 [Isoquercitrin] |  |  |  | 12.9 | 8.7 | 85.5 | 92.9 | 101 | 
CC1=C(/C=C/C(C)=C/C=C/C(C)=C\C(=O)O)C(C)(C)CCC1 [Isotretinoin] | 104.5 | 112.6 | 136.3 |  |  |  |  |  | activation at 2 µM [1, 15]: -19.2%; activation at 10 µM [1, 16]: -6.2%
CC(COc1ccccc1)NC(C)C(O)c1ccc(O)cc1 (stereo not shown) [Isoxsuprine] | 97.2 | 91.9 | 60.9 |  |  |  |  |  | activation at 2 µM [1, 13]: 13.2%; activation at 10 µM [1, 14]: 2.2%
